This is an account of results in PMC9089363, “Nonpolymeric Citramide-Based Kinetic Hydrate Inhibitors: Good Performance with Just Six Alkylamide Groups” (ACS Omega, 2022).

Read-outs that look alike come from different tables or passages of the source.

Data set [1] can be described thus: Cloud point (TCl) determination. The class given is physicochemical. The following applies: 2500 ppm aqueous solution, heated ca. 5 °C/min up to 95 °C. The method, then:
A 2500 ppm aqueous solution of each citramide derivative was heated slowly (ca. 5 °C/min), and the first sign of clouding of the solution at a certain temperature was denoted as the cloud point. Any solution that was already opaque at room temperature was first kept in a cooling room at 0–5 °C overnight before heating. Each measurement was repeated at least three times to check the reproducibility of the cloud point.

Data set [2] in a line: Slow constant cooling (SCC) KHI performance test in high-pressure steel rocking cells. The following applies: SNG 76 bar. The method, then:
2.5 Kinetic Hydrate Inhibitor (KHI) Performance Tests in High-Pressure Rocking Cells
A rig with five high-pressure steel rocking cells was used for carrying out the KHI performance ranking of the new molecules. Each cell has a volume of 40 mL and a steel ball for agitation. The rig was supplied by PSL Systemtechnik GmbH, Germany, but the cells were constructed by Swafas, Norway (Figure 6). As in most of our KHI studies, we used a synthetic natural gas (SNG) mixture in order to compare results with a host of previous KHI studies. The SNG gives an sII hydrate as the thermodynamically stable phase (Table 1). Also, for comparative purposes we used our standard slow constant cooling (SCC) test method.[27] The pressure was approximately 76 bar at the start of each SCC experiment. At this pressure, an average equilibrium temperature (Teq) of 20.2 °C ± 0.05 °C was obtained from five repeat tests by laboratory slow dissociation experiments in the same rocking cells.[20] This agrees very well with a Teq value of 20.5 °C calculated using Calsep’s PVTSim software.
The SCC test procedure was carried out as follows: • 1. First, 20.0 mL of aqueous test solution was added to each steel cell, i.e., half the cell volume. • 2. Air was removed from the cells by alternate vacuum and filling with 1–5 bar SNG gas. • 3. The cells were filled with a 76 bar SNG mixture at room temperature, 20.5 °C. • 4. The cells were cooled from 20.5 to 2 °C at a rate of 1 °C/h while rocking. • 5. Temperature and pressure data for each cell were collected from the sensors and recorded throughout the whole cooling procedure.
Figure 8 illustrates how this is done for one cell. The small pressure drop at the very start of the graph is due to some SNG mixture dissolving in the aqueous phase. After this, the pressure drop is linear until hydrate formation is first detected at a To of 8.4 °C, where the pressure line deviates. Nucleation may have occurred somewhat earlier but is not detectable. Ta is the first temperature at which we observe the maximum rate of gas hydrate formation for the experiment.
At 8.1 °C (Ta), the first fastest pressure drop rate occurs. In this case, the rate of hydrate growth is fast shortly after To. […] The degrees of scattering in To values (≤20%) and Ta values (≤15%) are due to the stochastic nature of gas hydrate formation and are as expected from previous studies.[28] The scattering still allows for a rough ranking of the performance of the KHI samples as long as sufficient tests are carried out for a statistically significant difference using a t-test. Depending on the variation in average To between samples, 5–10 tests suffices in most cases to get a significant difference at the 95% confidence level (p < 0.05).[29]
At least 5 (and up to 10) standard constant cooling tests were employed to get each average To and average Ta value, where To denotes the temperature at which the first macroscopic detectable gas hydrate is formed and Ta denotes the rapid hydrate formation temperature in a solution. The KHI performance of each citramide derivative was compared mostly based on the To values as complete avoidance of gas hydrate formation is the preferred goal for field operations. Thus, a lower To value of a solution corresponds to a better KHI performance. […] However, caution in using this interpretation must be taken, since a low To value will mean a high driving force, which can cause more rapid macroscopic hydrate formation than a higher To value.

The nature of data set [3]: Solubility in water (observation). The format is physicochemical.
The mark [4] stands for this setting: 2500 ppm aqueous solution, cooling 20.5 to 2 °C at 1 °C/h, average of 5-10 tests.
[5] abbreviates: 2500 ppm aqueous solution, cooling 20.5 to 2 °C at 1 °C/h, average of 5-10 tests, lower = better KHI.
Setting [6] is: 1000 ppm aqueous solution, SCC 1 °C/h.
The mark [7] stands for this setting: 2500 ppm + 1 mL of n-decane each cell + 5000 ppm nBGE, SCC 1 °C/h.
[8] abbreviates: 2500 ppm + 1 mL of n-decane each cell, SCC 1 °C/h.
The mark [9] stands for this setting: 2500 ppm + 3 mL of n-decane each cell + 5000 ppm nBGE, SCC 1 °C/h.

For `CCCNC(=O)CC(CC(=O)NCCC)(OC(=O)CC(=O)OC(CC(=O)NCCC)(CC(=O)NCCC)C(=O)NCCC)C(=O)NCCC` [malonyl-TnPrCAm, 1,3-Malonic acid bis(tripropylcitric acid) amide], the “cloud p.t Tcl” value in data set [1] is >95 °C. Further, the “av. Ta (gas hydrate rapid formation temperature)” value (“av. Ta” for short) in data set [2] (setting [4]) turned out to be 13.5 °C. Moreover, the “av. To (gas hydrate onset temperature)” value in data set [2] (setting [5]) was 16.3 °C.
On the same counts, the results for `CCCNC(=O)CC(O)(CC(=O)NCCC)C(=O)NCCC` [TnPrCAm, 2-Hydroxy-N^1,N^2,N^3-tripropylpropane-1,2,3-tricarboxamide] are >95 °C, 12.3 °C and 16.3 °C.
As to `CCCCCNC(=O)CC(O)(CC(=O)NCCCCC)C(=O)NCCCCC` [TnPeCAm, 2-Hydroxy-N^1,N^2,N^3-tripentylpropane-1,2,3-tricarboxamide], the solubility in water entry in data set [3] is “not soluble”; in data set [3] (listed as Tri-n-pentylcitramide), “negligible solubility in water”; in data set [3] (listed as tri-n-pentylcitramide), “not water soluble”.
On to `CCCNC(=O)CC(CC(=O)NCCC)(OC(=O)COCC(=O)OC(CC(=O)NCCC)(CC(=O)NCCC)C(=O)NCCC)C(=O)NCCC` [oxydiacetyl-TnPrCAm, 2,2′-Oxydiacetic acid bis(tripropylcitric acid) amide], for which the “cloud p.t Tcl” value in data set [1] was >95 °C. The “av. Ta” value in data set [2] (setting [4]) amounted to 12.3 °C. Moreover, the “av. To (gas hydrate onset temperature)” value in data set [2] (setting [5]) turned out to be 12.8 °C.
With `CC(C)CNC(=O)CC(CC(=O)NCC(C)C)(OC(=O)CC(=O)OC(CC(=O)NCC(C)C)(CC(=O)NCC(C)C)C(=O)NCC(C)C)C(=O)NCC(C)C` [malonyl-TiBuCAm, 1,3-Malonic acid bis(triisobutylcitric acid) amide], the “cloud p.t Tcl” value in data set [1] was >95 °C. The “av. Ta” value in data set [2] (setting [4]) worked out at 12.7 °C.
As for `CC(C)CNC(=O)CC(O)(CC(=O)NCC(C)C)C(=O)NCC(C)C` [TiBuCAm, 2-Hydroxy-N^1,N^2,N^3-triisobutylpropane-1,2,3-tricarboxamide], the “cloud p.t Tcl” value in data set [1] was >95 °C. Further, the “av. Ta” value in data set [2] (setting [4]) was 13.5 °C.
In the case of `CC(C)CNC(=O)CC(CC(=O)NCC(C)C)(OC(=O)COCC(=O)OC(CC(=O)NCC(C)C)(CC(=O)NCC(C)C)C(=O)NCC(C)C)C(=O)NCC(C)C` [oxydiacetyl-TiBuCAm, 2,2′-oxydiacetic acid bis(triisobutylcitric acid) amide], the “cloud p.t Tcl” value in data set [1] came out at 35 °C. Further, the “av. Ta” value in data set [2] (setting [6]) came out at 9.2 °C; in data set [2] (setting [7]), 7.9 °C; in data set [2] (setting [8]), 7.2 °C; in data set [2] (setting [9]), 6.0 °C; in data set [2] (setting [4]), 8.1 °C. Also, the “av. To (gas hydrate onset temperature)” value in data set [2] (setting [6]) turned out to be 9.3 °C; in data set [2] (setting [7]), 8.1 °C; in data set [2] (setting [8]), 7.4 °C; in data set [2] (setting [9]), 6.2 °C; in data set [2] (setting [5]), 8.4 °C.
